# In US8114641B2, “Methylbutanol as an advanced biofuel” (Synthetic Genomics, Inc., priority 2007, dated 2012):
# Like-named read-outs stand apart in the source and are kept apart here.
# B1: E. coli ilvG: Acetolactate synthase II, large subunit [Escherichia coli], SEQ ID NO: 39 (protein, listed as Escherichia coli)
# chain: MNGAQWVVHALRAQGVNTVFGYPGGAIMPVYDALYDGGVEHLLCRHEQGAAMAAIGYARATGKTGVCIATSGPGATNLITGLADALLDSIPVVAITGQVSAPFIGTDAFQEVDILGLSLACTKHSFLVQSLEELPRIMAEAFDVASSGRPGPVLVDIPKDIQLASGDLEPWFTTVENEVTFPHAEVEQARQMLAKAQKPMLYVGGGVGMAQAVSALREFLAATKMPATCTLKGLGAVEADYPYYLGMLGMHGTKAANFAVQECDLLIAVGARFDDRVTGKLNTFAPHASVIHMDIDPAEMNKLRQAHVALQGDLNALLPALQQPLNINDWQQYCAQLRDEHTWRYDHPGDAIYAPLLLKQLSDRKPADCVVTTDVGQHQMWAAQHIAHTRPENFITSSGLGTMGFGLPAAVGAQVARPNDTVVCISGDGSFMMNVQELGTVKRKQLPLKIVLLDNQRLGMVRQWQQLFFQERYSETTLTDNPDFLMLASAFGIPGQHITRKDQVEAALDTMLNSDGPYLLHVSIDELENVWPLVPPGASNSEMLEKLS
# B2: ADH6: Saccharomyces cerevisiae alcohol dehydrogenase ADH6, SEQ ID NO: 66 (protein, listed as Saccharomyces cerevisiae)
# chain: MSYPEKFEGIAIQSHEDWKNPKKTKYDPKPFYDHDIDIKIEACGVCGSDIHCAAGHWGNMKMPLVVGHEIVGKVVKLGPKSNSGLKVGQRVGVGAQVFSCLECDRCKNDNEPYCTKFVTTYSQPYEDGYVSQGGYANYVRVHEHFVVPIPENIPSHLAAPLLCGGLTVYSPLVRNGCGPGKKVGIVGLGGIGSMGTLISKAMGAETYVISRSSRKREDAMKMGADHYIATLEEGDWGEKYFDTFDLIVVCASSLTDIDFNIMPKAMKVGGRIVSISIPEQHEMLSLKPYGLKAVSISYSALGSIKELNQLLKLVSEKDIKIWVETLPVGEAGVHEAFERMEKGDVRYRFTLVGYDKEFSD
# B3: ADH7: Saccharomyces cerevisiae NADPH-dependent alcohol dehydrogenase ADH7, SEQ ID NO: 72 (protein, listed as Saccharomyces cerevisiae)
# chain: MLYPEKFQGIGISNAKDWKHPKLVSFDPKPFGDHDVDVEIEACGICGSDFHIAVGNWGPVPENQILGHEIIGRVVKVGSKCHTGVKIGDRVGVGAQALACFECERCKSDNEQYCTNDHVLTMWTPYKDGYISQGGFASHVRLHEHFAIQIPENIPSPLAAPLLCGGITVFSPLLRNGCGPGKRVGIVGIGGIGHMGILLAKAMGAEVYAFSRGHSKREDSMKLGADHYIAMLEDKGWTEQYSNALDLLVVCSSSLSKVNFDSIVKIMKIGGSIVSIAAPEVNEKLVLKPLGLMGVSISSSAIGSRKEIEQLLKLVSEKNVKIWVEKLPISEEGVSHAFTRMESGDVKYRFTLVDYDKKFHK
# B4: E. coli ilvB: Acetolactate synthase I, large subunit [Escherichia coli], SEQ ID NO: 37 (protein, listed as Escherichia coli)
# chain: MASSGTTSTRKRFTGAEFIVHFLEQQGIKIVTGIPGGSILPVYDALSQSTQIRHILARHEQGAGFIAQGMARTDGKPAVCMACSGPGATNLVTAIADARLDSIPLICITGQVPASMIGTDAFQEVDTYGISIPITKHNYLVRHIEELPQVMSDAFRIAQSGRPGPVWIDIPKDVQTAVFEIETQPAMAEKAAAPAFSEESIRDAAAMINAAKRPVLYLGGGVINAPARVRELAEKAQLPTTMTLMALGMLPKAHPLSLGMLGMHGVRSTNYILQEADLLIVLGARFDDRAIGKTEQFCPNAKIIHVDIDRAELGKIKQPHVAIQADVDDVLAQLIPLVEAQPRAEWHQLVADLQREFPCPIPKACDPLSHYGLINAVAACVDDNAIITTDVGQHQMWTAQAYPLNRPRQWLTSGGLGTMGFGLPAAIGAALANPDRKVLCFSGDGSLMMNIQEMATASENQLDVKIILMNNEALGLVHQQQSLFYEQGVFAATYPGKINFMQIAAGFGLETCDLNNEADPQASLQEIINRPGPALIHVRIDAEEKVYPMVPPGAANTEMVGE
# Key:
# [1] = Physical properties of alcohol fuels and gasoline; format: physicochemical
# [2] = based on literature review; cited from earlier work
# [3] = Fuel properties of the neat fuel; settings: for Pump Octane (R + M)/2: extrapolated from tests on blended fuels (blending octanes)
# [4] = for Energy Content / Pump Octane (R + M)/2: 10% blend in gasoline; for Pump Octane (R + M)/2: RBOB with Pump Octane 80.85 and RVP 7.37; for Reid Vapor Pressure: measured with 9.5% volumetric blend in RBOB
# [5] = Ether fuel testing (ULSD and hexadecane blends, neat ether); format: physicochemical
# [6] = Endpoint assay for acetolactate synthase activity with pyruvate as substrate; format: biochemical; settings: colorimetric detection at 546 nm, expressed in yeast
# Procedure: FIG. 23 (a-d.) Endpoint assays for acetolactate synthase activity were carried out using pyruvate as substrate. The resulting acetolactate was converted to […] under acidic conditions. Acetone was reacted with α-naphtha for colorimetric detection at 546 nm. […] The reaction was only moderately subject to feedback inhibition by leucine, isoleucine and valine (b, c and d) which could be due to longer reaction times.
# [7] = Enzyme assays of overexpressed ADH6 and ADH7 with crude extracts; format: biochemical; settings: NADPH dependent
# Procedure: Yeast ADH6 and ADH7 have been reported as broad substrate specificity alcohol dehydrogenases. These enzymes were therefore overexpressed in S. cerevisiae under the control of TEF promoter and enzyme assays were carried out with crude extracts. Both ADH6 and ADH7 were active on 2-methylbutanal and were NADPH dependent reductases.
# [8] = Aldehyde reductase assay of purified ADH6 on 2-methyl butyraldehyde; format: biochemical
# Procedure: Enzyme assays for aldehyde reductase activity were carried out in 100 mM citrate phosphate buffer pH6.2, 0.5 mM NADPH and 0.05 to 20 mM substrate (acetaldehyde or 2-methylbutanal). The reaction was monitored for 5 minutes at 340 nm for oxidation of NADPH to NADP+.
molecule,measurement,setting,value
"CCC(C)CO (stereo not shown) [2-MBO, 2-methyl-1-butanol]","Boiling Point, max",[1],130 °C
same,"Flash Point, min",[1],43 °C
same,"Freezing Point, max",[1],−70 °C
same,Fuel Solubility in Water,[2],3 wt %
same,Water Solubility in Fuel,[2],9 wt %
same,Energy Content,[3],"113,627 BTU/gal"
same,Reid Vapor Pressure,[3],2.3 psi
same,Pump Octane (R + M)/2,[3],102.0
same,Energy Content,[4],"113,963 BTU/gal"
same,Pump Octane (R + M)/2,[4],83.0
same,Reid Vapor Pressure,[4],~7^B psi
"CCC(C)COCC(C)CC (stereo not shown) [2MBO-ether, 2-methyl-1-(2-methylbutoxy)butane]",Flash,[5],118 ° F.
same,Solubility in Water,[5],<500 ppm
"CC(C)CCO [3-MBO, 3-methyl-1-butanol]","Boiling Point, max",[1],130 °C
same,"Flash Point, min",[1],43 °C
same,"Freezing Point, max",[1],−117 °C
same,Fuel Solubility in Water,[2],2 wt %
same,Water Solubility in Fuel,[2],9 wt %
same,Energy Content,[3],"112,240 BTU/gal"
same,Reid Vapor Pressure,[3],2.3 psi
same,Pump Octane (R + M)/2,[3],101.0
same,Energy Content,[4],"113,824 BTU/gal"
same,Pump Octane (R + M)/2,[4],82.0
same,Reid Vapor Pressure,[4],~7^B psi
"CCCCCCCCCCCCCCCC [Hexadecane, reference compound]",wear scar diameter,[5],534 µm
B1,acetolactate synthase activity on pyruvate,[6],minimum activity
B2,activity on 2-methylbutanal,[7],active
same,Km,"[8]; purified His-tagged enzyme, pH6.2, 0.5 mM NADPH",360 µM
same,"Vmax (cofactor oxidation rate) for 2-methyl butyraldehyde, fold higher than acetaldehyde",[8]; purified enzyme,1.3 fold
B3,activity on 2-methylbutanal,[7],active
B4,acetolactate synthase activity on pyruvate,[6],highest activity
